Experimental data as given in EP2875816A1, “N-(3-hydroxy-5,7-dimethyladamantan-1-yl)-2-(3-oxobenzo[d]isothiazol-2(3h)-yl)acetamide as a novel inhibitor for staphylococcus aureus sortase a” (Latvian Biomedical Research and Study Centre, priority 2013, dated 2015).
Converted amounts (≈) assume the structure as drawn.

What was measured:
[1] = test system: NIH/3T3 mouse fibroblast cell line; assay: Cytotoxicity / cell growth inhibition, MTT test; type: cell-based; settings: NIH3T3, 48 hours exposure, mean of three independent experiments ±SD
Experimental: The growth inhibitory effect of the newly synthesized compound was studied on NIH/3T3mouse fibroblast cell line. NIH/3T3 cells were seeded into 96-well microplates with initial density of 1x10^4 cells per well in DMEM culture medium with 10% FCS. After 24 hours of incubation, cells were exposed to a graded series of concentrations of chemical compounds for additional 48 hours. The cell medium was removed and 100 µl of fresh culture medium without phenol red and 1 mM MTT solution was added to each well. After 3 hours of incubation, an equal volume of 1% SDS-HCl solution was added and plates were incubated for additional 4 hours. Absorbance was measured at 570 nm and the data were fitted to a four parameter variable slope equation to determine the IC50 value.
The cytotoxic response is dependent on the cell line tested and NIH/3T3 mouse fibroblasts are a well-characterized cellular model used to study toxicity and drug delivery processes. In the table 3 data are given as the mean of three independent experiments ±SD.

[2] = biological target: T1, S. aureus sortase A (SrtAΔN59, residues 60-206) (Staphylococcus aureus, UniProt Q2FV99); assay: SrtA enzyme FRET inhibition assay (dose-response, recombinant sortase A with FRET peptide substrate containing the LPETG motif); type: biochemical
T1 construct: expressed with an N-terminal deletion of 59 amino acid residues (SrtAΔN59, residues 60-206); made in house
Excerpt: The catalytically active recombinant sortase A enzyme used for these studies was expressed with an N-terminal deletion of 59 amino acid residues (SrtAΔN59, residues 60-206). The first step included high-throughput screening of potent S. aereus SrtA inhibitors and selection of new antibacterial substances as sortase A inhibitors. In order to identify potent inhibitors of S. aureus sortase A, a high-throughput screening (HTS) of a diverse library of 50,000 drug-like low-molecular weight molecules was performed, which led to the identification of novel promising drug candidates.
These assays included determination of 50% SrtA inhibition concentration (IC50) of the newly synthesized derivative in dose-response experiments using the recombinant sortase
A enzyme incubated with FRET peptide substrate containing the LPETG motif, minimal inhibitory concentration (MIC) test with two staphylococcal species to measure the antimicrobial efficacy of the new inhibitory molecule, and toxicity test using a normal mouse embryonic fibroblasts cell line NIH/3T3 to determine the cell growth IC50 inhibitory concentration.
Values are means ±SD (n = 5).

[3] = test system: Staphylococcus aureus; assay: Minimum inhibitory concentration (MIC), broth dilution micromethod; type: cell-based; settings: 24 hours at 37 °C, complete inhibition of cell growth, OD 600 nm, read-out: MIC, S.aureus
Experimental: (§1) The MIC values of test compounds that inhibited cell growth of Gram-positive Staphylococcus aureus and S. epidermidis were determined by broth dilution micromethod. A series of solutions with a range from 0.1 µg/ml to 400 µg/ml were made in using a logarithmical phase culture with OD600 = 0.1 (corresponds to ~1.2 x 10^8 CFU/ml in 96-well plate standard. The plate was incubated at 37 °C for 24 hours and growth was assayed with a microplate reader by monitoring the absorption at 600 nm. All experiments were done in triplicate, and repeated three times.

[4] = test system: S. epidermidis; assay: as above; type: cell-based; settings: Staphylococcus epidermidis; 24 hours at 37 °C, complete inhibition of cell growth, OD 600 nm
Experimental: as §1

[5] = biological target: T2, SrtA (Staphylococcus aureus, UniProt Q2FV99); assay: Binding to SrtA monitored by 2D [15N,1H]-HSQC NMR spectroscopy, with dialysis; settings: 2D 15N-1H HSQC spectrum unchanged after dialysis against NMR buffer
T2 construct: expressed with an N-terminal deletion of 59 amino acid residues (SrtAΔN59, residues 60-206); made in house
Excerpt: • Fig. 1 - represents the binding of a selected inhibitor N-(adamantan-1-yl)-2-(3-oxo-2,3-dihydro-1,2-benzothiazol-2-yl)acetamide to SrtA monitored by 2D [^15N,^1H]-HSQC NMR spectroscopy. (a) Spectrum of SrtA in absence of inhibitor. […] (a) SrtA active site after modification by inhibitor. The inhibitor (in cyan) and near-by side chains of SrtA are shown with sticks and labeled. Side chains are colored according to their type: hydrophobic in yellow, negatively charged in red, positively charged in blue and hydrophilic in grey. Hydrogens are omitted for clarity. […] (c) Molecular surface representation of SrtA in complex with inhibitor. It can be seen in the figure that the inhibitor occupies almost all volume of the substrate pocket, the majority of interactions are hydrophobic and hydrogen bond is at the R139.
Determination of the complex structure of selected inhibitor and sortase enzyme was performed by using the nuclear magnetic resonance (NMR) spectroscopy methods. The collected NMR data allowed to specify the structure of inhibitory complexes.
To verify that the selected inhibitor can react with a cysteine thiol (such as the SrtA active site C 184) we performed a reaction with cysteine in the NMR tube and observed the formation of a covalent adduct (Figure 2). The chemical structure of the product was verified using proton 1D and 2D NMR methods.

Work on `CC12CC3(C)CC(O)(C1)CC(NC(=O)Cn1sc4ccccc4c1=O)(C2)C3` [N-(3-hydroxy-5,7-dimethyladamantan-1-yl)-2-(3-oxobenzo[d]isothiazol-2(3H)-yl)acetamide] yielded an IC50 [1] of 8.1 µg/mL (≈ 21 µM), an IC50 [2] of 3.9 µM and an MIC [3] of 8 µg/mL (≈ 20.7 µM). It also gave an MIC [4] of 8 µg/mL (≈ 20.7 µM).
With `O=C(Cn1sc2ccccc2c1=O)NC12CC3CC(CC(C3)C1)C2` [N-(adamantan-1-yl)-2-(3-oxo-2,3-dihydro-1,2-benzothiazol-2-yl)acetamide] the IC50 [1] was 1.3 µg/mL (≈ 3.8 µM), the MIC [3] was 1 µg/mL (≈ 2.92 µM) and the MIC [4] was 0.5 µg/mL (≈ 1.46 µM). The “Mode of binding to the active site of SrtA” value [5] was “irreversible binding”.
